# Reference: ChEMBL document CHEMBL3865792, “Antioxidant and antitumor activity of trolox, trolox succinate, and α-tocopheryl succinate conjugates with nitroxides” (Eur J Med Chem, 2016)
# Experiments:
# [1] = Genotoxicity in Escherichia coli PQ37 expressing lacZ gene assessed as ratio of inducible beta-galactosidase activity to alkaline phosphatase activity at 30 mM after 2 hrs by SOS-chromotest relative to control; type: toxicity; details: Escherichia coli PQ37 cells expressing lacZ gene, read-out: FC
# Salmonella typhimurium = assay: Genotoxicity in Salmonella typhimurium TA102 harboring […] mutant assessed as frequency of reversion from histidine auxotrophy to prototrophy at 30 mM after 48 hrs by Ames test (reference value: 209 +/- 10 No _unit); type: toxicity, organism-based; details: salmonella enterica subsp. enterica serovar typhimurium, 30000 µM
# [2] = tested on: Salmonella enterica subsp. enterica serovar Typhimurium; assay: Antioxidant activity in Salmonella typhimurium TA102 harboring […] mutant assessed as inhibition of t-BuO2H-dependant mutant formation at 0.3 uM preincubated with compound followed by t-BuO2H addition after 48 hrs by Ames test; type: functional
# [3] = tested on: Salmonella enterica subsp. enterica serovar Typhimurium; assay: Antioxidant activity in Salmonella typhimurium TA102 harboring […] mutant assessed as inhibition of t-BuO2H-dependant mutant formation at 3 uM preincubated with compound followed by t-BuO2H addition after 48 hrs by Ames test; type: functional
# [4] = tested on: Salmonella enterica subsp. enterica serovar Typhimurium; assay: Antioxidant activity in Salmonella typhimurium TA102 harboring […] mutant assessed as inhibition of t-BuO2H-dependant mutant formation at 30 uM preincubated with compound followed by t-BuO2H addition after 48 hrs by Ames test; type: functional
# [5] = Cytotoxicity against human MCF7 cells assessed as reduction in cell viability after 72 hrs by MTT assay; type: functional, cell-based; details: MCF7, 72 h
# [6] = Cytotoxicity against human RPMI8226 cells assessed as reduction in cell viability after 72 hrs by MTT assay; type: functional, cell-based; details: RPMI-8226, 72 h
# [7] = Cytotoxicity against human HepG2 cells assessed as reduction in cell viability after 72 hrs by MTT assay; type: functional, cell-based; details: HepG2, 72 h
# [8] = Cytotoxicity against human CEM13 cells assessed as reduction in cell viability after 72 hrs by MTT assay; type: functional, cell-based; details: CEM13, 72 h
# [9] = Cytotoxicity against human U937 cells assessed as reduction in cell viability after 72 hrs by MTT assay; type: functional, cell-based; details: U-937, 72 h
# [10] = Cytotoxicity against human MT4 cells assessed as reduction in cell viability after 72 hrs by MTT assay; type: functional, cell-based; details: MT4, 72 h
# [11] = Cytotoxicity against mouse LMTK cells assessed as reduction in cell viability after 72 hrs by MTT assay; type: toxicity
# [12] = Cytotoxicity against hamster AG17-1 cells assessed as reduction in cell viability after 72 hrs by MTT assay; type: toxicity, cell-based, Cricetulus griseus; details: Chinese hamster
# [13] = Cytotoxicity against human CEM13 cells assessed as reduction in cell viability at 300 uM after 72 hrs by MTT assay; type: functional; details: CEM13, 72 h
# [14] = Ratio of IC50 for human MCF7 cells to concentration causing antioxidant activity in Salmonella typhimurium TA102 harboring […] mutant; type: functional
# [15] = Ratio of IC50 for human RPMI8226 cells to concentration causing antioxidant activity in Salmonella typhimurium TA102 harboring […] mutant; type: functional, RPMI-8226
# [16] = Ratio of IC50 for human HEPG2 cells to concentration causing antioxidant activity in Salmonella typhimurium TA102 harboring […] mutant; type: functional
# [17] = Ratio of IC50 for human CEM13 cells to concentration causing antioxidant activity in Salmonella typhimurium TA102 harboring […] mutant; type: functional
# [18] = Ratio of IC50 for human MT4 cells to concentration causing antioxidant activity in Salmonella typhimurium TA102 harboring […] mutant; type: functional
# [19] = Ratio of IC50 for human U937 cells to concentration causing antioxidant activity in Salmonella typhimurium TA102 harboring […] mutant; type: functional, U-937
# [20] = Cytotoxicity against human HepG2 cells assessed as reduction in cell viability at 300 uM after 72 hrs by MTT assay; type: functional; details: HepG2, 72 h
# [21] = Cytotoxicity against mouse LMTK cells assessed as reduction in cell viability at 300 uM after 72 hrs by MTT assay; type: toxicity; details: read-out: INH
# [22] = Cytotoxicity against hamster AG17-1 cells assessed as reduction in cell viability at 300 uM after 72 hrs by MTT assay; type: toxicity, cell-based, Cricetulus griseus; details: Chinese hamster, read-out: INH
# [23] = Cytotoxicity against human MCF7 cells assessed as reduction in cell viability at 300 uM after 72 hrs by MTT assay; type: functional; details: MCF7, 72 h
SMILES,"fold induction at 2 h, 30000 µM [1]",Activity (Salmonella typhimurium),inhibition [2] [%],inhibition [3] [%],inhibition [4] [%],IC50 [5] [µM],IC50 [6] [µM],IC50 [7] [µM],IC50 [8] [µM],IC50 [9] [µM],IC50 [10] [µM],IC50 at 72 h [11] [µM],IC50 at 72 h [12] [µM],inhibition at 300 µM [13] [%],Ratio [14],Ratio [15],Ratio [16],Ratio [17],Ratio [18],Ratio [19],further results
Cc1c(C)c2c(c(C)c1OC(=O)CCC(=O)NC1CC(C)(C)N([O])C(C)(C)C1)CCC(C)(C(=O)NC1CC(C)(C)N([O])C(C)(C)C1)O2 (configuration not stated),1,203,7,25,25,62,68,42,> 300,72,41,133,54,33,100 - 1000,100 - 1000,100 - 1000,100 - 1000,100 - 1000,100 - 1000,
Cc1c(C)c2c(c(C)c1OC(=O)CCC(=O)O)CC[C@@](C)(CCC[C@H](C)CCC[C@H](C)CCCC(C)C)O2 [(+)-ALPHA-TOCOPHERYL SUCCINATE],1.1,216,56,63.2,63.6,57,63,245,> 300,113,66,73,50,40,,,,,,,
Cc1c(C)c2c(c(C)c1OC(=O)CCC(=O)NCC1CC(C)(C)N([O])C1(C)C)CC[C@@](C)(CCC[C@H](C)CCC[C@H](C)CCCC(C)C)O2 (some centres not stated),1,215,1,4,24,260,217,> 300,105,137,92,> 300,> 300,,100 - 1000,100 - 1000,100 - 1000,100 - 1000,100 - 1000,100 - 1000,"inhibition at 300 µM [20]: 10%; cytotoxicity at 72 h, 300 µM [21]: 7%; cytotoxicity at 72 h, 300 µM [22]: 32%"
Cc1c(C)c2c(c(C)c1OC(=O)CCC(=O)NCC1CC(C)(C)N([O])C1(C)C)CCC(C)(C(=O)NCC1CC(C)(C)N([O])C1(C)C)O2 (configuration not stated),1.2,209,13,23,20,> 300,70,176,107,61,114,> 300,50,,100 - 1000,100 - 1000,100 - 1000,100 - 1000,100 - 1000,100 - 1000,"inhibition at 300 µM [23]: 32%; cytotoxicity at 72 h, 300 µM [21]: 10%"
Cc1c(C)c2c(c(C)c1O)CCC(C)(C(=O)NC1CC(C)(C)N([O])C(C)(C)C1)O2 (configuration not stated),1.4,218,11,21.5,4.1,58,39,54,> 300,161,55,252,186,32,100 - 1000,100 - 1000,100 - 1000,100 - 1000,100 - 1000,100 - 1000,
